Article PMC5923120, “Acylhydrazones as Antifungal Agents Targeting the Synthesis of Fungal Sphingolipids” (Antimicrobial Agents and Chemotherapy, 2018)
Converted amounts (≈) assume the structure as drawn. Read-outs that look alike come from different tables or passages of the source.

Tests used:
in vitro [1] = settings: monkey
From the text: A commercially available kit was used to examine permeability through the blood-brain barrier (BBB kit MBT-24; Pharmaco Cell Co. Ltd.). This kit allows us to perform a permeability assay using an in vitro reproduction of the blood-brain barrier using monkey brain. Briefly, in a 12-well plate there is a triple culture, with endothelial cells in the luminal part and perycites and astrocytes in the abluminal side connected by tight junctions. The luminal side of the well represents the blood side, whereas the abluminal side represents the brain side. The integrity of the blood-brain barrier is assessed by the measurement of TEER, which indicates the formation of tight junctions. To have an efficient system, the TEER should be >150 Ω cm^2. The kit is kept frozen at −80°C until it is ready to use. […] After that it takes 3 days for the cells to adjust, and then the plate can be used in 4 days for the experiment. For drug testing, after assessing the TEER, the drugs were added in the chosen medium at the desired concentrations and at different time points. At the end of each time point the TEER was measured to assess if the BBB was still intact. After that the medium was collected and subjected to MS to measure the concentration of the samples in the brain side and calculate the permeability value (Papp).

in vitro [2] = settings: human, microsomes; for remaining at 0 h, 2 μM: % remaining at 0 min; for remaining at 0.25 h, 2 μM: % remaining at 15 min; for remaining at 0.5 h, 2 μM: % remaining at 30 min; for remaining at 0.75 h, 2 μM: % remaining at 45 min; for remaining at 1 h, 2 μM: % remaining at 60 min
Method: To test for metabolic stability, 40 μl of 10 mM NADPH solution was added to each well of a 96-well plate. The final concentration of NADPH was 1 mM. The mixture was prewarmed at 37°C for 5 min. The negative-control samples were prepared by replacing NADPH solutions with 40 μl of ultrapure H2O. The negative control was used to exclude the misleading factor that resulted from the instability of the chemical itself. Samples with NADPH were prepared in duplicate. Negative controls were prepared in singlet. The reaction was started with the addition of 4 μl of 200 μM control compound or test compound solutions. […] An aliquot of 90 μl of the supernatant was mixed with 90 μl of ultrapure H2O and then used for LC-MS/MS analysis.

[3] = Pharmacokinetic studies (plasma concentration); type: in vivo, mice
Method: For i.p. study, BHBM and D13 were dissolved in a mixture of cremophore-ethanol (1:1) to prepare a 10-mg/ml stock solution. The stock solution was diluted in PBS to obtain 200-μg/ml and 400-μg/ml solutions for i.p. administrations in C3H/HeN mice (n = 3). The compounds were administered to control (healthy) mice or immunocompromised mice infected with P. murina at doses of 0.8 mg/kg and 1.6 mg/kg via tail vein injection or intraperitoneal injection in a final volume of 100 μl. The mice were sacrificed and blood samples were collected predose and 0.5, 1, 2, 4, 8, 12, and 24 h after administration into K2EDTA-containing tubes. The samples were centrifuged immediately, and plasma was collected and stored at −80°C until bioanalysis. Plasma samples were extracted using methylene chloride.
Briefly, 50 μl of the plasma sample was taken into a glass vial, and 10 μl of internal standard N′-(3-bromobenzylidene)-4-hydroxybenzohydrazide was added. After the contents of the glass vial were mixed, 1 ml of methylene chloride was added to the vial and the samples were vortex mixed for 30 s, followed by centrifugation for 5 min. Eight hundred microliters of supernatant then was transferred to another tube and evaporated to dryness using a centrifugal evaporator. The residue was reconstituted in 100 μl acetonitrile-water (50:50) solution, mixed, and transferred to mass spectrometry vials. Separation was performed under isocratic reverse-phase chromatographic conditions using a Waters XBridge C18 column (3.5 μm; 2.1 by 100 mm) (Waters, Milford, MA), a Finnigan Surveyor MS pump (Thermo Fisher Scientific), and a Finnigan Micro AS autosampler (Thermo Fisher Scientific).
The mobile phase consisted of water-acetonitrile with 0.1% formic acid (50:50) run at a flow rate of 200 μl/min. Five-microliter aliquots then were analyzed using an LTQ-FT liquid chromatography-tandem mass spectrometer (LC-MS/MS) with the electrospray source in the positive ion mode (Thermo Fisher Scientific). For i.v. and p.o. administration, the formulation consisted of a 0.5-mg/ml solution of PEG 400-DMA (9:1). A volume of 1.21 mg of D13 was dissolved in 0.242 ml of […] (DMA) by vortexing and sonication, and then 2.178 ml of PEG440 was added with vortexing and sonication until a clear solution was obtained. For a 4-mg/ml solution of PEG 400-DMA (9:1), 2.13 mg of D13 was dissolved in 0.053 ml of DMA by vortexing and sonication, and then 0.479 ml of PEG 440 was added with vortexing and sonication until a clear solution was obtained. For i.v. and p.o. administration of BHBM, the formulation consisted of a 0.5-mg/ml solution of 5% DMSO and 5% solutol in water. A volume of 0.98 mg of BHBM was dissolved in 0.098 ml of DMSO with vortexing and sonication. […]

[4] = molecular target: human ether-a-go-go-related gene (hERG) potassium channel (Homo sapiens, UniProt Q12809); test: hERG patch clamp assay; type: cell-based
HepG2 = test: In vitro toxicity (MTT), HepG2; type: cell-based; settings: Homo sapiens, cytotoxicity
Method: (§1) The murine macrophage cell line J774 and human cancer cell lines A549 and HepG2 were maintained in DMEM containing 10% fetal bovine serum (FBS) and 1% penicillin-streptomycin. At passage 7, 10^5 cells/well in DMEM containing 10% FBS were transferred into 96-well plates and cultured for 14 h for the cells to adhere to the wells. The compounds were added to the cells at concentrations ranging from 0.03 to 128 μg/ml. The wells without the compound served as controls. […] After 24 or 48 h, the supernatant was removed and 50 μl of 5-mg/ml 3-(4,5-dimethylthiazol-2-yl)-2,5-diphenyltetrazoliumbromide (MTT) solution in phosphate-buffered saline (PBS) was added to each well. The plates were incubated for an additional 4 h. The formazan crystal formed inside the cell was dissolved by adding 50 μl of dimethyl sulfoxide (DMSO). The optical density was measured at 570 nm.

J774 = test: In vitro toxicity (MTT), J774; type: cell-based, murine; settings: Mus musculus, cytotoxicity
Method: as §1

C. neoformans [5] = test: In vitro killing assay; settings: minimum concentration that kills 100% of C. neoformans cells in 48 h
Method: C. neoformans cells from a culture grown overnight were washed in PBS and resuspended in YNB buffered with HEPES at pH 7.4. The cells were counted, and 2 × 10^4 cells were incubated with different concentrations of the drugs in a final volume of 10 ml with a final concentration of 0.5% DMSO. The tubes were then incubated at 37°C with 5% CO2 on a rotary shaker at 200 rpm. Aliquots were taken at the time points indicated and diluted, and 100-µl portions were plated onto YPD plates.

C. neoformans [6] = test: In vitro susceptibility testing (MIC80); type: cell-based, Cryptococcus neoformans
Method: MICs were determined by following the methods of the Clinical and Laboratory Standards Institute (CLSI), with modifications. […] The compounds were serially diluted from 32 to 0.03 μg/ml in a 96-well plate. The inoculum was prepared as described in CLSI protocol M27A3 guidelines ([39]). […] The MICs were determined as the lowest concentration of the compound that inhibited 80% of growth compared to the control.

A549 = test: In vitro toxicity (MTT), A549; type: cell-based; settings: Homo sapiens, cytotoxicity
Method: as §1

C. albicans = test: Mouse model of invasive candidiasis; type: in vivo, mice; settings: oral gavage 20 mg/kg/day, i.v. infection with 10^4 cells of C. albicans, after 21 days
Caco-2 cell line = test: Caco-2 permeability; settings: human, Caco-2, 2 h, 5 μM, pH 7.4
Method: The Caco-2 permeability studies were performed as follows. (i) For the preparation of Caco cells, 50-μl and 25-ml volumes of cell culture medium were added to each well of the Transwell insert and reservoir, respectively. The HTS Transwell plates then were incubated at 37°C, 5% CO2 for 1 h before cell seeding. […] (ii) For the preparation of stock solutions, 10 mM stock solutions of test compounds were prepared in DMSO. The stock solutions of positive controls were prepared in DMSO at a concentration of 10 mM. Digoxin and propranolol were used as control compounds in this assay. (iii) For the assessment of cell monolayer integrity, medium was removed from the reservoir and each Transwell insert and replaced with prewarmed fresh culture medium. Transepithelial electrical resistance (TEER) across the monolayer was measured using a Millicell epithelial volt-Ohm measuring system (Millipore, USA). The plate was returned to the incubator once the measurement was done. The TEER value was calculated according to the following equation: TEER measurement (ohms) × area of membrane (cm^2) = TEER value (ohm · cm^2). The TEER value should be greater than 230 Ω · cm^2, which indicates a well-qualified Caco-2 monolayer. (iv) The assay was performed as follows. The Caco-2 plate was removed from the incubator and washed twice with prewarmed Hanks' balanced salt solution (HBSS; with 10 mM HEPES, pH 7.4) and then incubated at 37°C for 30 min. The stock solutions of control compounds were diluted in DMSO to get 1 mM solutions and then diluted with HBSS (10 mM HEPES, pH 7.4) to get 5 μM working solutions. The stock solutions of the test compounds were diluted in DMSO to get 1 mM solutions and then diluted with HBSS (10 mM HEPES, pH 7.4) to get 5 μM working solutions. The final concentration of DMSO in the incubation system was 0.5%. To determine the rate of drug transport in the apical to basolateral direction, 75 μl of 5 μM working solution of test compound was added to the Transwell insert (apical compartment), and the wells in the receiver plate (basolateral compartment) were filled with 235 μl of HBSS (10 mM HEPES, pH 7.4). To determine the rate of drug transport in the basolateral to apical direction, 235 μl of 5 μM working solution of test compound was added to the receiver plate wells (basolateral compartment), and then the Transwell inserts (apical compartment) were filled with 75 μl of HBSS (10 mM HEPES, pH 7.4). Time zero samples were prepared by transferring 50 μl of 5 μM working solution to wells of the 96-deep-well plate, followed by the addition of 200 μl cold acetonitrile or methanol containing appropriate IS. The plates were incubated at 37°C for 2 h. At the end of the incubation, 50-μl samples from donor sides (apical compartment for AP→BL flux and basolateral compartment for BL→AP) and receiver sides (basolateral compartment for AP→BL flux and apical compartment for BL→AP) were transferred to wells of a new 96-well plate, followed by the addition of 4 volumes of cold acetonitrile or methanol containing appropriate IS. […] An aliquot of 100 μl of the supernatant was mixed with an appropriate volume of ultrapure water before LC-MS/MS analysis. To determine the Lucifer yellow leakage after a 2-h transport period, a stock solution of Lucifer yellow was prepared in ultrapure water and diluted with HBSS (10 mM HEPES, pH 7.4) to reach a final concentration of 100 μM. One hundred microliters of the Lucifer yellow solution was added to each Transwell insert (apical compartment), followed by filling the wells in the receiver plate (basolateral compartment) with 300 μl of HBSS (10 mM HEPES, pH 7.4). The plates were incubated at 37°C for 30 min, and 80-μl samples were removed directly from the apical and basolateral wells (using the basolateral access holes) and transferred to wells of new 96-well plates.

C. neoformans [7] = test: Mouse model of cryptococcosis; type: in vivo, mice; settings: for mice that survived: treatment immediately after intranasal infection, 40 days
[8] = Cryptococcus neoformans, ChemBridge compounds, Supplementary Table 1, read-out: MIC80
[9] = lowest concentration inhibiting 80% of growth
[10] = i.p. 1.2 mg/kg/day, treatment started 5 days after infection
[11] = oral 20 mg/kg/day starting the day of infection
[12] = oral 20 mg/kg/day, 32 days posttreatment, data not shown

Chain of human ether-a-go-go-related gene (hERG) potassium channel (Q12809 whole entry): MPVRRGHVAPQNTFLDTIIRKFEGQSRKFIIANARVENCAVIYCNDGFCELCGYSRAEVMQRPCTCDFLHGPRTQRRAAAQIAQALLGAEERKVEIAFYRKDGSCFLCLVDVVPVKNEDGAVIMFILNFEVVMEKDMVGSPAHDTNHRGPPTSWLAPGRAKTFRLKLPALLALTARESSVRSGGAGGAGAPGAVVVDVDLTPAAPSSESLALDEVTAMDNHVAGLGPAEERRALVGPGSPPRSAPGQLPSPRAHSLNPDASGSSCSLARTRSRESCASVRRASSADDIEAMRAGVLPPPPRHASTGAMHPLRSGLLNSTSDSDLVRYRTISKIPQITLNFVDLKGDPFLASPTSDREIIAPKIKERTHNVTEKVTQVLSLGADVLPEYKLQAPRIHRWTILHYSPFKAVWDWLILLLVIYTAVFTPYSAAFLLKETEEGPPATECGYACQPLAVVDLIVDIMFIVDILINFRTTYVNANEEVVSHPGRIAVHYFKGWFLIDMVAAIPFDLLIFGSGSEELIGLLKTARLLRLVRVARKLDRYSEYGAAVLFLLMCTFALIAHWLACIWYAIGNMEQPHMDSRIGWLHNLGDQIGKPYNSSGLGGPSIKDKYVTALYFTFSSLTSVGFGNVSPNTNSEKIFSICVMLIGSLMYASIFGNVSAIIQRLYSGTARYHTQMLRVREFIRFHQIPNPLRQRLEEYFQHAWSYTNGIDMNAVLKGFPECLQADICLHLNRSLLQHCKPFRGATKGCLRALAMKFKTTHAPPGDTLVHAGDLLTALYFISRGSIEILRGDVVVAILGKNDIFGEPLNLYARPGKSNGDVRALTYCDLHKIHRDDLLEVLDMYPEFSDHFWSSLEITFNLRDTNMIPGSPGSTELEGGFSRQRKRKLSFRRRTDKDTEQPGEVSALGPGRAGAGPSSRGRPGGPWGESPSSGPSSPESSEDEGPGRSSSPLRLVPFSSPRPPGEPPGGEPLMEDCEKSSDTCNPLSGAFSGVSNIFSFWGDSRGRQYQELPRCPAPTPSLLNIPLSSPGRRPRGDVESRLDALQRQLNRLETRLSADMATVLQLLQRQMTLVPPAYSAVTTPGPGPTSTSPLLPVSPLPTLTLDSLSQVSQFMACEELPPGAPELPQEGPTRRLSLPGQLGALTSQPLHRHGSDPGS

Row | Structure (SMILES) | Papp at 5 min (in vitro [1]) | Papp at 15 min (in vitro [1]) | Papp at 30 min (in vitro [1]) | half-life at 2 μM (in vitro [2]) | microsomal CLint at 2 μM (in vitro [2]) | remaining at 0 h, 2 μM (in vitro [2]; with NADPH) | remaining at 0 h, 2 μM (in vitro [2]; without NADPH) | remaining at 0.25 h, 2 μM (in vitro [2]; with NADPH) | remaining at 0.25 h, 2 μM (in vitro [2]; without NADPH) | remaining at 0.5 h, 2 μM (in vitro [2]; with NADPH) | remaining at 0.5 h, 2 μM (in vitro [2]; without NADPH) | remaining at 0.75 h, 2 μM (in vitro [2]; with NADPH) | remaining at 0.75 h, 2 μM (in vitro [2]; without NADPH) | remaining at 1 h, 2 μM (in vitro [2]; without NADPH) | time up to which detected in plasma ([3]; i.p. administration) | IC50 [4] | IC50 (HepG2) | IC50 (J774) | K100* (C. neoformans [5]) | MIC80 (C. neoformans [6]; [8]) | also measured
1 | O=C(N/N=C/c1cc(Br)cc(Br)c1O)c1ccc(Br)cc1 [D13] | 6.8 ×10⁻⁶ cm/s | 2.2 ×10⁻⁶ cm/s | 1.1 ×10⁻⁶ cm/s | 1.72 h | 13.4 µL/min/mg | 100% | 100% | 83.9% | 96.5% | 73% | 86.5% | 73.1% | 81.9% | 88.9% | ≥ 20 h | > 30 µM | > 128 µg/mL | 16 µg/mL (≈ 33.5 µM) | 0.5 µg/mL | 0.06 µg/mL (≈ 0.126 µM) | remaining at 1 h, 2 μM (in vitro [2]; with NADPH): ~60%; MIC80 (C. neoformans [6]; [9]): 0.06 µg/mL (≈ 0.126 µM); IC50 (A549): > 128 µg/mL; mice that survived (C. albicans): 20%; Efflux ratio (Caco-2 cell line): 1.74; mice that survived (C. neoformans [7]; i.p. 1.2 mg/kg/day): 70%; mice that survived until the end of the experiment (C. neoformans [7]; [10]): 40%; mice that survived until the end of the experiment (C. neoformans [7]; [11]): 50%; CFU in brains and lungs (C. neoformans [7]; [12]): only one D13-treated mouse showed fungal colonies and only in the lung; fungal cells in brains (C. neoformans [7]; [12]): clear of fungal cells
2 | Cc1ccccc1C(=O)N/N=C/c1cc(Br)ccc1O [BHBM, (E)-N′-(3-bromo-6-hydroxybenzylidene)-2-methylbenzohydrazide] | 22 ×10⁻⁶ cm/s | 9 ×10⁻⁶ cm/s | 9 ×10⁻⁶ cm/s | 0.814 h | 28.4 µL/min/mg | 100% | 100% | 83.2% | 101% | 62.5% | 88.5% | 51.3% | 81.2% | 82.7% | ≤ 4 h | 11.5 µM | 32 µg/mL (≈ 96 µM) | 16 µg/mL (≈ 48 µM) | >1 µg/mL | 1 µg/mL (≈ 3 µM) | time up to which detected in plasma ([3]; i.v. injection): 8 h; plasma concentration ([3]; i.v., reached within the first hour and remained for about 8 h): 10 ng/mL; MIC80 (C. neoformans [6]; [9]): 1 µg/mL (≈ 3 µM); IC50 (A549): 32 µg/mL (≈ 96 µM); mice that survived (C. albicans): 20%; Recovery AP→BL (Caco-2 cell line): 41.88%; Recovery BL→AP (Caco-2 cell line): 39.05%; mice that survived (C. neoformans [7]; i.p. 1.2 mg/kg/day): 50%; day by which all mice died (C. neoformans [7]; [10]): ≤ 30 days; mice that survived until the end of the experiment (C. neoformans [7]; [11]): 10%
